This note sets out measurements from EP0158545A1, “[Alpha-(alkylaminomethyl)-benzylthio]-acetic-acid derivatives, process for their preparation and their therapeutic use” (priority 1984, dated 1985).

In test [1] the test system is chiens. The test is described as follows: Cardiovascular tests in dogs, intraduodenal successive doses. The test is classed as in vivo, chien. The procedure:
a) Quatre chiens (poids moyen : 13,8 kg) anesthésiés au nembutal reçoivent le CRL 41 250 par voie intraduodénale, aux doses successives de 0,1 mg/kg, 0,5 mg/kg, 1 mg/kg, 2,5 mg/kg, 5 mg/kg puis 10 mg/kg. On mesure la pression artérielle, la fréquence cardiaque, le débit artériel fémoral, le débit artériel vertébral, la température rectale et on observe la coloration de la peau.
a) Deux chiens (poids moyen : 14,5 kg) reçoivent le CRL 41 252 par voie intraduodénale, aux doses successives de 0,1 mg/kg, 0,5 mg/kg, 1 mg/kg, 2,5 mg/kg, 5 mg/kg, 10 mg/kg et 20 mg/kg. On mesure la pression artérielle, la fréquence cardiaque, le débit artériel fémoral, le débit artériel vertébral, les températures rectale et cutanée et on observe la coloration de la peau.

Test [2] relates to chiens. Described as above. The test is classed as in vivo. The following applies: chien, injection I.M. de 10 mg/kg.
Test [3] relates to chiens. Kind of test: Influence on noradrenaline hypertension, dog. In kind it is in vivo. Particulars: chien. The procedure:
(§1) b) Sur les mêmes chiens on a étudié l'influence du produit vis à vis de l'isoprénaline et de la noradrénaline.
L'hyptertension à la noradrénaline (2 µg/kg I.V.) est augmentée par le CRL 41 252 ([…]), la pression artérielle systolique passe de 208 à 352 mmHg (soit environ de 2,77 x 10^4 à 4,7 x 10^4Pa) au lieu de 204 à 328 mmHg (soit environ de 2,71 à 4,3 x 10 Pa).

Test [4] relates to système nerveux central (SNC). Kind of test: General statement of CNS (antidepressant, sedative) properties. In kind it is in vivo.
Test [5] concerns chiens. Kind of test: Influence on isoprenaline effects, dog. In kind it is in vivo. The following applies: chien.
Text: as §1
Avec 10,pg/kg I.V. d'isoprénaline la pression artérielle diastolique du CRL 41 252 passe de 128 à […] ([…] à 6,4 x 10^3 Pa), […]

Where [6] appears, read: chien, successive I.D. doses 0,1 to 20 mg/kg.

Entries after “also recorded” stand apart in the source; their conditions may differ.

Consider `CC(C)(C)NCC(SCC(N)=O)c1ccccc1F` (racemic) [CRL 41 252, fumaratede [α-(tertiobutylaminométhyl)-2-fluorobenzyl]-thioacétamide], for which, in the test on chiens [1] (setting [6]), the “pression artérielle et fréquence cardiaque” value was “n'a pas d'effet sur la pression artérielle ni sur la fréquence cardiaque” and the “températures rectale et cutanée” value was “augmente les températures rectale et cutanée”. For the same compound, in the test with chiens [1] (chien, voie intraduodénale, à partir de 10 mg/kg I.D.), the “débits fémoraux” value is recorded as “augmente les débits fémoraux à partir de la dose de 10 mg/kg I.D”. In addition, in the test with chiens [1] (general statement), the “effets vasodilatateurs (propriétés cardiovasculaires)” value is on record as “effets vasodilatateurs intéressants; also recorded: effets vasodilatateurs bénéfiques”. Further, the “débits fémoraux” value in the test on chiens [2] is recorded as “cet effet étant confirmé par l'injection I.M. de 10 mg/kg”. Further, the “pression artérielle systolique, before noradrénaline” value with chiens [3] (after dose cumulée 39,1 mg/kg I.D., control 204) came out at 208 mmHg. In the test with chiens [3] (noradrénaline 2 µg/kg I.V., after dose cumulée 39,1 mg/kg I.D., control 328), the “pression artérielle systolique, after noradrénaline” value is on record as 352 mmHg. In addition, the “hypertension à la noradrénaline” value with chiens [3] (noradrénaline 2 µg/kg I.V., dose cumulée de 39,1 mg/kg I.D.) is on record as “augmentée”. Also, the “propriétés antidépressives et sédatives” value in test [4] is on record as “propriétés antidépressives et sédatives”. Further, in the test on chiens [5] (after dose cumulée 39,1 mg/kg I.D., control 152), the “pression artérielle diastolique, before isoprénaline” value stood at 128 mmHg. Besides, the “fréquence cardiaque, before isoprénaline” value with chiens [5] (after dose cumulée 39,1 mg/kg I.D., control 192) was 215 battements/ minute. Besides, the “effets de l'isoprénaline” value in the test with chiens [5] (after dose cumulée de 39,1 mg/kg I.D.) is reported as “légèrement diminués”. Moreover, in the test with chiens [5] (isoprénaline 10,pg/kg I.V., after dose cumulée 39,1 mg/kg I.D., control 48), the “pression artérielle diastolique, after isoprénaline” value was 58 mmHg. In addition, the “fréquence cardiaque, after isoprénaline” value with chiens [5] (isoprénaline 10,pg/kg I.V., after dose cumulée 39,1 mg/kg I.D., control 310) amounted to 302 battements/ minute.
